Experimental data from paper PMC10486429, “Investigations Using Albumin Binders to Modify the Tissue Distribution Profile of Radiopharmaceuticals Exemplified with Folate Radioconjugates” (Cancers, 2023).

Legend:
[1] = tested on: human serum albumin (HSA) in human blood plasma; assay: Ultrafiltration albumin-binding assay of 177Lu-DOTA-ALBs, human blood plasma
Method: (§1) The relative affinities of ^177Lu-labeled DOTA-ALBs (50 MBq/nmol) to albumin in mouse and human blood plasma were determined using an ultrafiltration assay according to a previously described procedure (Supplementary Materials Section S5). A dry chemistry analyzer (DRI-CHEM 4000i, FUJIFILM, Japan) was used to determine the mouse serum albumin concentration (conc. MSA: ~550 µM) in mouse blood plasma (Rockland Immunochemicals, Inc., Pottstown, PA, USA, Lot No. 23248) and the human serum albumin concentration (conc. HSA: ~800 µM) in human blood plasma of a healthy volunteer (Stiftung Blutspende SRK Aargau-Solothurn, Aarau, Switzerland). The albumin-bound fraction of the radioligands was determined at variable molar concentration ratios of serum albumin to the respective radiolabeled DOTA-ALB using a blood plasma/PBS dilution series and a constant amount of ^177Lu-DOTA-ALBs (0.5 MBq; 0.01 nmol). The free (albumin-unbound) radioligand fraction was separated from the albumin-bound fraction using Centrifree filter devices (cut-off 10 kDa; Merck Millipore, Carrigtwohill, Ireland) to enable the calculation of the percentage of albumin-bound radioligand. […] The results were presented as average ± standard deviation (SD) of 3 independent experiments. […]
(§2) S5. Relative Albumin-binding Properties of 177Lu-DOTA-ALBs
(§3) Purpose: The relative albumin-binding affinities of the 177Lu-DOTA-ALBs were in-vestigated using mouse and human blood plasma.
(§4) Methods: Relative binding affinities of 177Lu-DOTA-ALBs to mouse (MSA) and hu-man (HSA) serum albumin in the respective blood plasma were determined using an ul-trafiltration assay according to a previously described procedure. In brief, an average MSA concentration of ⁓550 µM was measured for mouse blood plasma (Rockland Immu-nochemicals, Inc., Pottstown, PA, USA, Lot N° 23248), while an HSA concentration of ⁓800 µM was determined for human blood plasma (Stiftung Blutspende SRK Aargau-Solothurn, Aarau, Switzerland) using a dry chemistry analyzer (DRI-CHEM 4000i, FUJI-FILM, Japan). A fixed amount of the respective 177Lu-DOTA-ALB (50 MBq/nmol:, ~500 kBq, 25 µL, 0.01 nmol) was added to a defined volume (250 µL) of mouse and human […]
(§5) and 0.01 to 20000, respectively. […]
(§6) off 10 kDa; Merck Millipore, Carrigtwohill, Ireland). The albumin-bound fractions at the […]
(§7) the half-maximum binding (B50). The relative albumin-binding affinities were defined as […]
(§8) sented as average ± SD of 3 independent experiments.
(§9) Results: The results are reported in the main article.
(§10) S6. Blood Clearance of 177Lu-DOTA-ALBs […]
(§11) their blood clearance profile.
(§12) Blood clearance of 177Lu-labeled DOTA-ALBs were determined in n=3–6 mice per radioligand. The radiolabeled DOTA-ALBs ( […]
(§13) various timepoints over the following 48 h. […]
(§14) up to 3 and 7 days, respectively. […]

[2] = tested on: mouse serum albumin (MSA) in mouse blood plasma; assay: Ultrafiltration albumin-binding assay of 177Lu-DOTA-ALBs, mouse blood plasma
Method: as §1, §2, §3, §4, §5, §6, §7, §8, §9, §10, §11, §12, §13, §14

[3] = tested on: KB tumor-bearing athymic nude mice; assay: Biodistribution of 177Lu-RedFols in KB tumor-bearing mice; type: in vivo, mouse
Method: Athymic nude mice (Crl:CD1-Foxn^nu) were kept on a folate-deficient rodent diet (ssniff Spezialdiäten GmbH, Soest, Germany) for at least one week prior to inoculation with the tumor cells. Biodistribution studies were performed approx. two weeks after subcutaneous inoculation with KB tumor cells (5 × 10^6 in 100 μL PBS) (Supplementary Materials Section S12). […] Data were presented as the average ± SD of n = 3−4 mice.
Purpose: Biodistribution studies were performed in KB tumor-bearing athymic nude mice (Crl:CD1-Foxnnu) in order to investigate the tissue distribution profiles of the novel radioconjugates. The aim was to compare the impact of the two different albumin binders (4-(p-iodophenyl)butanoate unit vs. 5-(p-iodophenyl)pentanoate unit), and that of the in-corporation of an AMBA linker adjacent to the albumin binder on the distribution profile of the resulting folate radioconjugates.
Methods: The methods are described in the main article. The mice were sacrificed at […]

O=C(O)CN1CCN(CC(=O)O)CCN(CC(=O)NCCC(=O)N[C@@H](CCCCNC(=O)c2ccc(CNC(=O)CCCc3ccc(I)cc3)cc2)C(=O)O)CCN(CC(=O)O)CC1.[177Lu] [[^177Lu]Lu-DOTA-ALB-3]
Albumin-binding affinity relative to [177Lu]Lu-DOTA-ALB-1 [1]: almost no difference
Fold stronger albumin-binding affinity than [177Lu]Lu-DOTA-ALB-25 [1]: ~ 4 fold
Fold increased albumin-binding affinity relative to [177Lu]Lu-DOTA-ALB-1 [2]: ~ 15 fold
Fold stronger albumin-binding affinity than [177Lu]Lu-DOTA-ALB-25 [2]: ~ 10 fold

O=C(O)CN1CCN(CC(=O)O)CCN(CC(=O)NCCC(=O)N[C@@H](CCCCNC(=O)CCCc2ccc(I)cc2)C(=O)O)CCN(CC(=O)O)CC1.[177Lu] [[^177Lu]Lu-DOTA-ALB-1]
Fold higher albumin-binding affinity than [177Lu]Lu-DOTA-ALB-24 [1]: ~ 10 fold
Fold higher albumin-binding affinity than [177Lu]Lu-DOTA-ALB-24 [2]: ~ 3 fold

O=C(O)CN1CCN(CC(=O)O)CCN(CC(=O)NCCC(=O)N[C@@H](CCCCNC(=O)c2ccc(CNC(=O)CCCCc3ccc(I)cc3)cc2)C(=O)O)CCN(CC(=O)O)CC1.[177Lu] [[^177Lu]Lu-DOTA-ALB-25]
Fold higher albumin-binding affinity than [177Lu]Lu-DOTA-ALB-24 [1]: ~ 3 fold
Fold higher albumin-binding affinity than [177Lu]Lu-DOTA-ALB-24 [2]: ~ 5 fold

CN1c2c(nc(N)[nH]c2=O)NCC1CNc1ccc(C(=O)NC(CCC(=O)NC(CCCCNC(=O)CN2CCN(CC(=O)[O-])CCN(CC(=O)[O-])CCN(CC(=O)[O-])CC2)C(=O)NC(CCCCNC(=O)c2ccc(CNC(=O)CCCCc3ccc(I)cc3)cc2)C(=O)O)C(=O)O)cc1.[177Lu+3] (stereo not drawn) [[^177Lu]Lu-6S-RedFol-25]
Blood, accumulated activity ([3]; 1 h p.i.): 13 ± 2 % IA/g
Bone, accumulated activity ([3]; 1 h p.i.): 1.4 ± 0.2 % IA/g
Intestines, accumulated activity ([3]; 1 h p.i.): 1.3 ± 0.3 % IA/g
KB tumor, accumulated activity ([3]; 1 h p.i.): 17 ± 2 % IA/g
Kidneys, accumulated activity ([3]; 1 h p.i.): 38 ± 5 % IA/g
Liver, accumulated activity ([3]; 1 h p.i.): 2.3 ± 0.1 % IA/g
Lung, accumulated activity ([3]; 1 h p.i.): 5.5 ± 0.8 % IA/g
Muscle, accumulated activity ([3]; 1 h p.i.): 1.2 ± 0.2 % IA/g
Salivary glands, accumulated activity ([3]; 1 h p.i.): 2.2 ± 1.5 % IA/g
Spleen, accumulated activity ([3]; 1 h p.i.): 1.4 ± 0.2 % IA/g
Stomach, accumulated activity ([3]; 1 h p.i.): 1.3 ± 0.2 % IA/g
Tumor-to-blood ratio ([3]; 1 h p.i.): 1.3 ± 0.1
Tumor-to-kidney ratio ([3]; 1 h p.i.): 0.45 ± 0.02
Tumor-to-liver ratio ([3]; 1 h p.i.): 7.4 ± 0.6
Blood, accumulated activity ([3]; 4 h p.i.): 8.4 ± 2.8 % IA/g
Bone, accumulated activity ([3]; 4 h p.i.): 1.1 ± 0.4 % IA/g
Intestines, accumulated activity ([3]; 4 h p.i.): 1.2 ± 0.4 % IA/g
KB tumor, accumulated activity ([3]; 4 h p.i.): 32 ± 8 % IA/g
Kidneys, accumulated activity ([3]; 4 h p.i.): 88 ± 23 % IA/g
Liver, accumulated activity ([3]; 4 h p.i.): 1.9 ± 0.5 % IA/g
Lung, accumulated activity ([3]; 4 h p.i.): 4.1 ± 1.4 % IA/g
Muscle, accumulated activity ([3]; 4 h p.i.): 0.92 ± 0.27 % IA/g
Salivary glands, accumulated activity ([3]; 4 h p.i.): 1.9 ± 1.1 % IA/g
Spleen, accumulated activity ([3]; 4 h p.i.): 1.3 ± 0.3 % IA/g
Stomach, accumulated activity ([3]; 4 h p.i.): 1.0 ± 0.4 % IA/g
Tumor-to-blood ratio ([3]; 4 h p.i.): 4.0 ± 1.2
Tumor-to-kidney ratio ([3]; 4 h p.i.): 0.37 ± 0.05
Tumor-to-liver ratio ([3]; 4 h p.i.): 18 ± 5
Blood, accumulated activity ([3]; 24 h p.i.): 0.15 ± 0.09 % IA/g
Bone, accumulated activity ([3]; 24 h p.i.): 0.14 ± 0.05 % IA/g
Intestines, accumulated activity ([3]; 24 h p.i.): 0.10 ± 0.03 % IA/g
KB tumor, accumulated activity ([3]; 24 h p.i.): 37 ± 4 % IA/g
Kidneys, accumulated activity ([3]; 24 h p.i.): 121 ± 13 % IA/g
Liver, accumulated activity ([3]; 24 h p.i.): 0.56 ± 0.07 % IA/g
Lung, accumulated activity ([3]; 24 h p.i.): 0.27 ± 0.06 % IA/g
Muscle, accumulated activity ([3]; 24 h p.i.): 0.10 ± 0.02 % IA/g
Salivary glands, accumulated activity ([3]; 24 h p.i.): 0.49 ± 0.04 % IA/g
Spleen, accumulated activity ([3]; 24 h p.i.): 0.42 ± 0.05 % IA/g
Stomach, accumulated activity ([3]; 24 h p.i.): 0.13 ± 0.04 % IA/g
Tumor-to-blood ratio ([3]; 24 h p.i.): 316 ± 150
Tumor-to-kidney ratio ([3]; 24 h p.i.): 0.31 ± 0.02
Tumor-to-liver ratio ([3]; 24 h p.i.): 67 ± 16
